# Reference: patent publication US6664231B1, “Anti-fungal peptides” (priority 1993, dated 2003)
# Test system: C. albicans (CA-1, Strain SLU-1)
# Test: Radial diffusion assay
# Assay type: cell-based, Candida albicans
# Settings: pmoles of peptide added to well to achieve a 30 mm^2 zone, PROBIT analysis; crude or purified (P′) peptide
# Procedure, shortened: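 Yeast at 1×10^6 CFU/mL in agarose underlayer (3% Sabouraud, 10 mM sodium phosphate pH 7.4); 2-fold peptide dilutions in D-PBS from ~1 mg/mL loaded into wells, 3 h at 37° C, then nutrient overlayer overnight. Value: pmol/well giving 30 mm^2 net clear zone, by PROBIT regression.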
row,Substance,C. albicans pmol/30 mm^2 zone
1,H-KSKVGILIQLFHKK-NH2 [XMP.251],"1,289 pmol/30 mm^2 zone"
2,H-KSKVGKLIQLFHKK-NH2 [XMP.135],428 pmol/30 mm^2 zone
3,H-KSKVGLLIQLFHKK-NH2 [XMP.250],536 pmol/30 mm^2 zone
4,H-KSKVGWLAQLFHKK-NH2 [XMP.38],391 pmol/30 mm^2 zone
5,H-KSKVGWLIALFHKK-NH2 [XMP.39],1792 pmol/30 mm^2 zone
6,H-KSKVGWLIDLFHKK-NH2 [XMP.264],879 pmol/30 mm^2 zone
7,H-KSKVGWLIELFHKK-NH2 [XMP.263],"1,197 pmol/30 mm^2 zone"
8,H-KSKVGWLIFLFHKK-NH2 [XMP.91],>3844 pmol/30 mm^2 zone
9,H-KSKVGWLIFLFHKKKSKVGWLIFLFHKK-NH2 [XMP.275],b (No detectable activity up to 5 μg/well)
10,H-KSKVGWLIFLFHKKKSKVGWLIQLFHKK-NH2 [XMP.273],">2,120 pmol/30 mm^2 zone"
11,H-KSKVGWLIKLFHKK-NH2 [XMP.92],299 pmol/30 mm^2 zone
12,H-KSKVGWLILLFHKK-NH2 [XMP.86],>2048 pmol/30 mm^2 zone
13,H-KSKVGWLILLFHKKKSKVGWLILLFHKK-NH2 [XMP.272],">2,599 pmol/30 mm^2 zone"
14,H-KSKVGWLILLFHKKKSKVGWLIQLFHKK-NH2 [XMP.270],>722 pmol/30 mm^2 zone
15,H-KSKVGWLILLWHKK-NH2 [XMP.241],">2,161 pmol/30 mm^2 zone"
16,H-KSKVGWLINLFHKK-NH2 [XMP.262],984 pmol/30 mm^2 zone
17,H-KSKVGWLIQAFHKK-NH2 [XMP.40],253 pmol/30 mm^2 zone
18,H-KSKVGWLIQFFHKK-NH2 [XMP.113],947 pmol/30 mm^2 zone
19,H-KSKVGWLIQLAHKK-NH2 [XMP.41],734 pmol/30 mm^2 zone
20,H-KSKVGWLIQLFAKK-NH2 [XMP.42],548 pmol/30 mm^2 zone
21,H-KSKVGWLIQLFFKK-NH2 [XMP.94],>923 pmol/30 mm^2 zone
22,H-KSKVGWLIQLFHAK-NH2 [XMP.43],785 pmol/30 mm^2 zone
23,H-KSKVGWLIQLFHKA-NH2 [XMP.44],578 pmol/30 mm^2 zone
24,H-KSKVGWLIQLFHKF-NH2 [XMP.96],1856 pmol/30 mm^2 zone
25,H-KSKVGWLIQLFHKKKSKVGWLIFLFHKK-NH2 [XMP.274],">2,457 pmol/30 mm^2 zone"
26,H-KSKVGWLIQLFHKKKSKVGWLILLFHKK-NH2 [XMP.271],">1,995 pmol/30 mm^2 zone"
